Values joined by “and” are separate entries in the source; they are usually repeats but may differ in a detail not shown here. Equal values may be shown once. “Also recorded” adds a separate entry of the source.
Assays:
[1] = tested on: P. falciparum transmission to An. gambiae; experiment: Standard membrane feeding assay (SMFA), transmission-blocking activity by feeding; type: in vivo
Protocol: The 15-17-day-old cultured P. falciparum iRBCs containing 2-3% stage V gametocytes were collected and diluted with new O+ type human blood, with the same volume of heat-inactivated AB+ human serum added. The final concentration of stage V gametocytes in the blood was around 0.2%. Then, 3 μL of the candidate fungal extract or pulixin with different concentrations in DMSO was mixed with 297 μL of infected blood and was used to feed about 100 3-5-day-old An. gambiae G3 female mosquitoes for 30 min, and the engorged mosquitoes were maintained with 8% sugar in a BSL-2 insectary (28° C., 12 h light/dark cycle, 80% humidity). The midguts were dissected 7 days after infection and stained with 0.1% mercury dibromofluorescein disodium salt in PBS. The oocysts were counted under a light microscope.

[2] = tested on: interaction between FREP1 and P. falciparum-infected cell lysate; experiment: ELISA of FREP1 binding to P. falciparum-infected cell lysate; settings: pulixin 5 μg/mL
Protocol: Small molecules that inhibited the FREP1-Plasmodium interaction to block malaria transmission were screened. In brief, P. falciparum-infected (NF54 obtained from the BEI Resources, Manassas, Va., USA) red blood cells (iRBCs) were cultured for 15-17 days. The iRBCs suspended in PBST (PBS containing 0.2% Tween-20) was homogenized by ultra-sonication with six cycles of 10 s of pulse and 50 s of resting on ice for each period. The lysates were centrifuged at 8,000×g for 2 min to remove insoluble materials and cellular debris. Then, 96-well ELISA plates were coated with 50 μL of the iRBC lysate (2 mg/mL protein) overnight at 4° C. After coating, the wells were blocked with 100 μL of 2% bovine serum albumin (BSA) in PBS per well for 1.5 h at room temperature (RT). After removal of the blocking solution, 49 μL of FREP1 (10 μg/mL) in blocking buffer (PBS containing 2% BSA) and 1 μL of fungal extract (2 mg/mL in DMSO) were added to each well, followed by incubation for 1 h at RT. […] Finally, each well was developed with 50 μL of pNPP substrate (Sigma-Aldrich) until the colors were visible, and absorbance at 405 nm was measured. […]
The 15-17-day cultured P. falciparum infected cell lysate was prepared as described above. […] Rabbit anti-FREP1 polyclonal antibodies quantified the retained FREP1 as described above. After reaction with the pNPP, A405 was measured. […]

[3] = tested on: P. falciparum gametocytes; experiment: Conversion ratio from gametocytes to ookinetes; type: cell-based; settings: pulixin 40 μM
Protocol: P. falciparum (NF54) was cultured in the complete RPMI-1640 medium containing 4% new 0+ human red blood cells, 10% human AB+ serum, and 12.5 μg/mL of hypoxanthine in a candle jar at 37° C. To prepare P. falciparum ookinetes, 5 mL of day-15 cultured P. falciparum containing ˜2% stage V gametocytes were transferred into a 15 mL centrifuge tube and centrifuged at 650×g for 5 min at RT. The pellet was then resuspended in 500 μL of sterile ookinete culture medium (RPMI-1640 medium containing 20% human serum AB+, 50 μg/mL of hypoxanthine, 2 g/L NaHCO3). The resuspended cells were transferred into a well of a 12-well plate and incubated at room temperature on a shaker (20 rpm) for 24 h to generate ookinetes. Finally, cell mixtures of the ookinetes, gametocytes, and asexual-stage P. falciparum were collected by centrifugation at 650×g for 5 min at RT.
The 15-17-day-old cultured P. falciparum was collected by centrifugation at 500×g for 3 min. The pellets were suspended in ookinete culture medium (incomplete RPMI-1640 containing 20% human serum AB+, 50 μg/mL of hypoxanthine, and 2 g/L of NaHCO3) to obtain 10^5 gametocytes per μL. […] After incubation on a shaker (20 rpm) at RT for 18-24 h, the ookinetes and gametocytes were counted using a Giemsa-stained blood smear under a bright-field microscope. The ratios of gametocytes to ookinetes were calculated.

[4] = tested on: human embryonic kidney 293 (HEK293) cells; experiment: General cytotoxicity MTT assay; type: cell-based; settings: 24 h
Protocol: A drug could kill a cell or inhibit the cell proliferation through general cytotoxicity. Vybrant® MTT (3-(4,5-dimethylthiazol-2-yl)-2,5-diphenyl tetrazolium bromide) Cell Proliferation Assay (Thermo Fisher) was used to analyze living cells. The human embryonic kidney 293 (HEK293) cell line was used as the experimental cells. About 20,000 HEK293 cells in 100 μL of culture medium (RPMI 1640+2 mM glutamine+10% fetal bovine serum) were seeded per well in 96-well microplates. After incubation at 37° C. with 5% CO2 for 24 h, 1 μL of pulixin in DMSO at various dilutions was added into each well to obtain a final concentration of 0, 1, 3, 10, 30, and 100 μg/mL. Three replicates were conducted for each concentration. Following the incubation at 37° C. with 5% CO2 for 24 h, 10 μL, of MTT (5 mg/mL in PBS) was added into each well and incubated for 4 h at 37° C. with 5% CO2. All but 25 μL of the medium was removed from the wells, 100 μL of DMSO was added to each well and incubated at 37° C. for 10 min to dissolve formazan crystals for measurement. Optical density was measured at an absorbance wavelength of 540 nm. The data were analyzed using ANOVA in Prism 8 (GraphPad, San Diego, Calif.). The experiment was independently performed twice.

[5] = tested on: asexual-stage P. falciparum; experiment: Inhibition assay of asexual Plasmodium falciparum proliferation; type: cell-based
Protocol: The 3-5-day cultured iRBC were mixed with fresh human RBCs (AB+ type) in complete RPMI-1640 to prepare cultures with 0.5% parasitemia and 2% hematocrit. Pulixin was dissolved in DMSO at the concentration of 1 mg/mL and diluted with DMSO to various levels. A 2 μL pulixin solution mixed with 1 mL of cell culture was added to a 24-well plate. The plate was incubated in a candle jar at 37° C. Approximately 48 h later, the medium was replaced with fresh medium containing same concentration of pulixin. Parasitemia was recorded at 24, 48, 72, and 96 h post-incubation. The test for each concentration was replicated three times. EC50 was determined by analyzing the dose-response curve obtained with GraphPad Prism (GraphPad Software, CA, USA). The assays were repeated.

Cc1cc(N)cc2oc(=O)c3c(O)cc(O)cc3c12 [pulixin, 3-amino-7,9-dihydroxy-1-methyl-6H-benzo[c]chromen-6-one]
EC50 ([1]; Anopheles gambiae, 168 h, read-out: EC50, concentration that inhibits 50% of infection intensity (number of oocysts per mosquito)): 11 µM | inhibition of malaria transmission ([1]; pulixin 40 μM in infected blood): completely inhibited; also recorded: completely blocked | inhibition of the interaction between the FREP1 protein and P. falciparum-infected cell lysate [2]: about 50% | conversion of gametocytes to ookinetes versus control [3]: no significant difference; also recorded: did not inhibit | density of living HEK293 cells versus control ([4]; pulixin 0 to 30 μg/mL (116 μM)): No significant difference | density of living HEK293 cells versus other concentrations ([4]; pulixin 100 μg/mL): significant reduction; also recorded: significantly lower | EC50 ([5]; Plasmodium falciparum, 96 h, parasitemia on day 4, read-out: EC50 inhibiting development of asexual-stage P. falciparum): 0.012 µg/mL and 47 nM | P. falciparum-infected cells on day 4 versus control (0 μg/mL) ([5]; pulixin greater than 0.01 μg/mL): Significantly fewer
